In PubChem BioAssay AID328 (DTP/NCI, 2004):
Where “and” joins values, the source holds several entries; their conditions need not be identical. Equal values may be shown once. Toxic doses and inconclusive results are not listed. Rule for the calls: active = survival T/C of 150% or more; inactive = T/C below 125% in these data.

Tested on: BDF1 mice, P388 leukemia ip, median survival T/C
Assay: NCI In Vivo Anticancer Drug Screen. Data for tumor model P388 Leukemia (intraperitoneal) in B6D2F1 (BDF1) mice
Conditions: endpoint: median survival time, higher = longer survival
In short: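 Compound-treated tumour-bearing mice were compared with vehicle-treated controls. Survival was recorded, and the value is the treated-group measurement divided by the control-group measurement (T/C).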

[1] = dose: 400.0 mg/kg/injection, schedule: Q01DX001 (ip), vehicle: Klucel (hydroxypropylcellulose) (HPC)
[2] = dose: 12.5 mg/kg/injection, schedule: Q01DX009 (ip), vehicle: Klucel (hydroxypropylcellulose) (HPC)
[3] = dose: 25.0 mg/kg/injection, schedule: Q01DX009 (ip), vehicle: Klucel (hydroxypropylcellulose) (HPC)
[4] = dose: 100.0 mg/kg/injection, schedule: Q04DX003 (ip), vehicle: saline with Tween-80
[5] = dose: 200.0 mg/kg/injection, schedule: Q04DX003 (ip), vehicle: saline with Tween-80
[6] = dose: 400.0 mg/kg/injection, schedule: Q04DX003 (ip), vehicle: saline with Tween-80
[7] = dose: 100.0 mg/kg/injection, schedule: Q04DX003 (ip), vehicle: saline
[8] = dose: 200.0 mg/kg/injection, schedule: Q04DX003 (ip), vehicle: saline
[9] = dose: 400.0 mg/kg/injection, schedule: Q04DX003 (ip), vehicle: saline
[10] = dose: 50.0 mg/kg/injection, schedule: Q01DX009 (ip), vehicle: saline with Tween-80
[11] = dose: 100.0 mg/kg/injection, schedule: Q01DX009 (ip), vehicle: saline with Tween-80
[12] = dose: 200.0 mg/kg/injection, schedule: Q01DX009 (ip), vehicle: saline with Tween-80
[13] = dose: 100.0 mg/kg/injection, schedule: Q01DX009 (ip), vehicle: Klucel (hydroxypropylcellulose) (HPC)
[14] = dose: 200.0 mg/kg/injection, schedule: Q01DX009 (ip), vehicle: Klucel (hydroxypropylcellulose) (HPC)
[15] = dose: 50.0 mg/kg/injection, schedule: Q01DX009 (ip), vehicle: Klucel (hydroxypropylcellulose) (HPC)
[16] = dose: 25.0 mg/kg/injection, schedule: Q01DX009 (ip), vehicle: saline with Tween-80
[17] = dose: 25.0 mg/kg/injection, schedule: Q04DX003 (ip), vehicle: saline with Tween-80
[18] = dose: 50.0 mg/kg/injection, schedule: Q04DX003 (ip), vehicle: saline with Tween-80
[19] = dose: 20.0 mg/kg/injection, schedule: Q04DX003 (ip), vehicle: saline
[20] = dose: 40.0 mg/kg/injection, schedule: Q04DX003 (ip), vehicle: saline
[21] = dose: 80.0 mg/kg/injection, schedule: Q04DX003 (ip), vehicle: saline
[22] = dose: 400.0 mg/kg/injection, schedule: Q01DX009 (ip), vehicle: saline with Tween-80

Measured: T/C

CC(=O)OC12C3CCCC1CCCC2CCC3 (stereo not given)
inactive: dose: 100.0 mg/kg/injection, schedule: Q01DX001 (ip), vehicle: Klucel (hydroxypropylcellulose) (HPC) 100 % of control | dose: 200.0 mg/kg/injection, schedule: Q01DX001 (ip), vehicle: Klucel (hydroxypropylcellulose) (HPC) 100 % of control | [1] 100 % of control

CCCCCCC(C)NCC(O)COc1cccc(C)c1 (stereo not given)
inactive: dose: 3.12 mg/kg/injection, schedule: Q01DX009 (ip), vehicle: Klucel (hydroxypropylcellulose) (HPC) 113 % of control | [2] 116 % of control | [3] 120 % of control

CCCCCCCC(=O)CCCCC
inactive: [4] 100 % of control | [5] 95 % of control | [6] 91 % of control

O=C(c1ccc(Cl)cc1)n1c(Cl)c(/C=N\Nc2cccc([N+](=O)[O-])c2)c2ccccc21
inactive: [1] 89 % of control

C#CC(C)OCC(O)CCl (stereo not given)
inactive: dose: 25.0 mg/kg/injection, schedule: Q01DX009 (ip), vehicle: saline 100 % of control | dose: 50.0 mg/kg/injection, schedule: Q01DX009 (ip), vehicle: saline 118 % of control | dose: 100.0 mg/kg/injection, schedule: Q01DX009 (ip), vehicle: saline 109 % of control | [7] 108 % of control | [8] 104 % of control | [9] 108 % of control

C/C(=C\c1ccc(OCc2ccccc2)cc1)C(=O)c1ccc(Cl)cc1
inactive: [10] 90 % of control | [11] 87 % of control | [12] 92 % of control

c1cc[c]([Sb]([c]2ccccc2)[c]2ccccc2)cc1
inactive: dose: 20.0 mg/kg/injection, schedule: Q04DX003 (ip), vehicle: saline with Tween-80 120 % of control

CC(O)c1ccc(-c2ccccc2)cc1 (stereo not given)
inactive: [13] 120 % of control | dose: 100.0 mg/kg/injection, schedule: Q04DX003 (ip), vehicle: Klucel (hydroxypropylcellulose) (HPC) 95 % of control | [14] 105 % of control | dose: 200.0 mg/kg/injection, schedule: Q04DX003 (ip), vehicle: Klucel (hydroxypropylcellulose) (HPC) 100 % of control | dose: 400.0 mg/kg/injection, schedule: Q01DX009 (ip), vehicle: Klucel (hydroxypropylcellulose) (HPC) 110 % of control | dose: 400.0 mg/kg/injection, schedule: Q04DX003 (ip), vehicle: Klucel (hydroxypropylcellulose) (HPC) 100 % of control

FC(F)(F)C(Cl)Br (stereo not given)
inactive: dose: 100.0 mg/kg/injection, schedule: Q01DX001 (ip), vehicle: saline 90 % of control | dose: 150.0 mg/kg/injection, schedule: Q04DX003 (ip), vehicle: saline 86 % of control | dose: 200.0 mg/kg/injection, schedule: Q01DX001 (ip), vehicle: saline 90 % of control | dose: 225.0 mg/kg/injection, schedule: Q04DX003 (ip), vehicle: saline 100 % of control | dose: 335.0 mg/kg/injection, schedule: Q04DX003 (ip), vehicle: saline 86 % of control | dose: 400.0 mg/kg/injection, schedule: Q01DX001 (ip), vehicle: saline 100 % of control

O=C(O)COc1c(Br)cc(Br)cc1Br
inactive: [15] 90 % of control | [13] 90 % of control | [14] 110 % of control

CN(C)CCOc1cccc(OCCN(C)C)n1
inactive: [16] 100 % of control | [17] 87 % of control | [10] 95 % of control | [18] 91 % of control

CC(=O)OS(C)(=O)=O
inactive: [19] 100 % of control | [20] 95 % of control | [21] 104 % of control | [7] 110 % of control

CN(C)C(=O)Nc1ccc(Cl)cc1
inactive: dose: 50.0 mg/kg/injection, schedule: Q01DX001 (ip), vehicle: saline with Tween-80 95 % of control | dose: 100.0 mg/kg/injection, schedule: Q01DX001 (ip), vehicle: saline with Tween-80 100 % of control | dose: 200.0 mg/kg/injection, schedule: Q01DX001 (ip), vehicle: saline with Tween-80 104 % of control

CCOC(=O)NCCCCCCNC(=O)OCC
inactive: [10] 95 % of control | [11] 100 % of control | [5] 90 % of control

CCC[S-].CCC[S-].[C-]#[O+].[C-]#[O+].[C-]#[O+].[C-]#[O+].[Rh].[Rh]
inactive: [4] 122 % of control | [12] 90 % of control | [5] 122 % of control | [22] 100 % of control | [6] 122 % of control

c1ccc2c(c1)Cc1c(NC3=NCCO3)cccc1-2
inactive: [18] 95 % of control | [4] 95 % of control | [5] 108 % of control | [6] 100 % of control

O=C(NC(=O)C(F)(F)C(F)(F)F)Nc1cccc(F)c1
inactive: [15] 116 % of control | [13] 122 % of control

COCCNCCN1CCN(CCCN2c3ccccc3Sc3ccc(C(F)(F)F)cc32)CC1
inactive: [19] 105 % of control and 106 % of control | [20] 108 % of control and 113 % of control | [21] 120 % of control

C#CCOCC1CNC(=S)O1 (stereo not given)
inactive: [11] 100 % of control | [12] 100 % of control | [22] 100 % of control

COc1ccc2c(c1)CCC1C2=CC(=O)/C1=C\[O-].COc1ccc2c(c1)CCC1C2=CC(=O)/C1=C\[O-].[Cu+2] (stereo not given)
inactive: dose: 12.5 mg/kg/injection, schedule: Q04DX003 (ip), vehicle: saline with Tween-80 113 % of control | [17] 109 % of control

N#CC12CC3CC(CC(C3)C1)C2
inactive: dose: 5.0 mg/kg/injection, schedule: Q01DX009 (ip), vehicle: saline with Tween-80 100 % of control | dose: 20.0 mg/kg/injection, schedule: Q01DX009 (ip), vehicle: saline with Tween-80 88 % of control

NC(=O)c1[nH]nc(C2OC(CO)C(O)C2O)c1O (stereo not given)
inactive: dose: 0.25 mg/kg/injection, schedule: Q01DX009 (ip), vehicle: saline 116 % of control | dose: 0.5 mg/kg/injection, schedule: Q04DX003 (ip), vehicle: saline 99 % of control and 100 % of control and 104 % of control | dose: 0.62 mg/kg/injection, schedule: Q01DX009 (ip), vehicle: saline 100 % of control | dose: 0.63 mg/kg/injection, schedule: Q01DX009 (ip), vehicle: saline 113 % of control | dose: 1.0 mg/kg/injection, schedule: Q01DX009 (ip), vehicle: saline 120 % of control | dose: 1.0 mg/kg/injection, schedule: Q04DX003 (ip), vehicle: saline 103 % of control and 109 % of control | dose: 1.25 mg/kg/injection, schedule: Q01DX009 (ip), vehicle: saline 100 % of control | dose: 2.0 mg/kg/injection, schedule: Q04DX003 (ip), vehicle: saline 106 % of control and 108 % of control (2×) | dose: 4.0 mg/kg/injection, schedule: Q04DX003 (ip), vehicle: saline 99 % of control and 115 % of control | dose: 5.0 mg/kg/injection, schedule: Q04DX003 (ip), vehicle: saline 118 % of control | dose: 8.0 mg/kg/injection, schedule: Q04DX003 (ip), vehicle: saline 100 % of control and 112 % of control and 123 % of control | dose: 10.0 mg/kg/injection, schedule: Q04DX003 (ip), vehicle: saline 107 % of control | dose: 16.0 mg/kg/injection, schedule: Q04DX003 (ip), vehicle: saline 123 % of control | [19] 118 % of control

CCOC(=O)c1cnc(N(C)C)[nH]c1=O
inactive: [2] 103 % of control | [3] 95 % of control | [15] 86 % of control

N=C1CCCC1C(=S)SCCC(N)=O (stereo not given)
inactive: [10] 99 % of control | [11] 99 % of control | [12] 94 % of control

CCOc1nc(S(=O)(=O)CC)ncc1C
inactive: [16] 92 % of control | dose: 75.0 mg/kg/injection, schedule: Q01DX009 (ip), vehicle: saline with Tween-80 90 % of control | [4] 105 % of control | dose: 150.0 mg/kg/injection, schedule: Q01DX009 (ip), vehicle: saline with Tween-80 106 % of control | [5] 96 % of control | [6] 96 % of control

C=Cn1ccnc1C(O)(c1ccc(Cl)cc1)c1ccc(Cl)cc1
inactive: [11] 116 % of control

COc1cccc(/C=C(/SC)S(C)=O)c1OC (stereo not given)
inactive: [7] 106 % of control | [8] 115 % of control | [9] 120 % of control
